From patent US12570604B2, “Polymorphic forms of a tetracycline compound and uses thereof” (Tetraphase Pharmaceuticals, Inc., priority 2018, dated 2026)

Key:
[1] = Dynamic vapor sorption (DVS) of crystalline Forms A and B; assay type: physicochemical; details: 25° C., adsorption range 0% to 95% RH
Procedure: (§1) The crystalline forms provided can be additionally characterized by dynamic vapor sorption (DVS), wherein a sample is subjected to varying conditions of humidity and temperature, and the response of the sample is measured gravimetrically. The result of a DVS analysis particularly can be a dual curve providing sample weight percent as a function of relative humidity (RH) over time, a dual curve providing sample water content as a function of RH over time, a curve providing weight percent in relation to RH, or a curve providing water content in relation to RH. Equipment useful for measuring such data is known in the art, and any such equipment can be used to measure the compounds according to the present invention. In certain embodiments, DVS analysis can be carried out by scanning at a series of specific RH values. Thus, specific polymorphs according to the invention may be identified and described in relation to the representative graph and/or the approximate peaks obtained in DVS analysis, particularly scanning from 0% to 95% RH with a step interval of 5% or 10% RH.
DVS pattern for the crystalline Forms A and B was generated at 25° C. using a DVS Moisture Balance Flow System (Model Advantage) with the following conditions: sample size approximately 10 to 20 mg, drying at 25° C. for 60 minutes, adsorption range 0% to 95% RH, desorption range 95% to 0% RH, and step interval 5% RH. […]

[2] = Dynamic vapor sorption (DVS) of crystalline Forms C and D; assay type: physicochemical; details: for DVS rapid weight gain: in the range of 25-35% RH; for DVS low weight gain: in the range of 35-75% RH
Procedure: as §1
DVS data for the crystalline Forms C and D were collected on a Surface Measurement System DVS Intrinsic instrument. Samples were not dried prior to analysis. Sorption and desorption data were collected over a range from 5% to 95% RH at 10% RH increments under a nitrogen purge. The equilibrium criterion used for analysis was less than 0.0100% weight change in 5 minutes with a maximum equilibration time of 3 hours. Data were not corrected for the initial moisture content of the samples.

SMILES	DVS weight gain ([1]; at 75% RH)	DVS weight gain ([1]; at 95% RH)	DVS weight gain ([2]; in the range of 5-25% RH)	DVS rapid weight gain [2]	DVS weight gain ([2]; in the range of 35-45% RH)	DVS low weight gain [2]	DVS total weight gain ([2]; between 5 and 95% RH)
CN(C)[C@@H]1C(O)=C(C(N)=O)C(=O)[C@@]2(O)C(O)=C3C(=O)c4c(O)c(NC(=O)[C@@H]5CCCN5C)cc(F)c4C[C@H]3C[C@@H]12 [Form A, (S)—N-((5aR,6aS,7S,10aS)-9-carbamoyl-7-(dimethylamino)-4-fluoro-1,8,10a,11-tetrahydroxy-10,12-dioxo-5,5a,6,6a,7,10,10a,12-octahydrotetracen-2-yl)-1-methylpyrrolidine-2-carboxamide]	about 19%	about 40%	–	–	–	–	–
CN(C)[C@@H]1C(O)=C(C(N)=O)C(=O)[C@@]2(O)C(O)=C3C(=O)c4c(O)c(NC(=O)[C@@H]5CCCN5C)cc(F)c4C[C@H]3C[C@@H]12 [Form C, (S)—N-((5aR,6aS,7S,10aS)-9-carbamoyl-7-(dimethylamino)-4-fluoro-1,8,10a,11-tetrahydroxy-10,12-dioxo-5,5a,6,6a,7,10,10a,12-octahydrotetracen-2-yl)-1-methylpyrrolidine-2-carboxamide]	–	–	about 2.7%	about 10%	about 6.1%	about 3.7%	–
CN(C)[C@@H]1C(O)=C(C(N)=O)C(=O)[C@@]2(O)C(O)=C3C(=O)c4c(O)c(NC(=O)[C@@H]5CCCN5C)cc(F)c4C[C@H]3C[C@@H]12 [Form D, (S)—N-((5aR,6aS,7S,10aS)-9-carbamoyl-7-(dimethylamino)-4-fluoro-1,8,10a,11-tetrahydroxy-10,12-dioxo-5,5a,6,6a,7,10,10a,12-octahydrotetracen-2-yl)-1-methylpyrrolidine-2-carboxamide]	–	–	about 2.7%	about 10%	–	about 3.7%	about 39.2%
